From PMC11079024, “Identification of a family of species-selective complex I inhibitors as potential anthelmintics” (Nature Communications, 2024)
Read-outs that look alike come from different tables or passages of the source.

What was measured:
L1 wild-type C. elegans [1] = conditions: for Screen "Hit": 50 μM
in vitro = conditions: human; for viability at 2 days, 3.13 µM / viability at 2 days, 6.25 µM / viability at 2 days, 12.5 µM / viability at 2 days, 25 µM / viability at 2 days, 50 µM / viability at 2 days, 100 µM: HEK293 cells (Flp-In-293)
[2] = system: ben-1 mutant (ECA882) C. elegans; test: microbe, parasite or virus in culture; conditions: Caenorhabditis elegans; for viability at 1 µM / viability at 2 µM / viability at 3.9 µM / viability at 15.6 µM / viability at 31.3 µM / viability at 62.5 µM / viability at 125 µM / viability at 250 µM / viability at 500 µM / viability at 1000 µM: read-out: C. elegans ben-1(e1880) development/viability
Method in brief: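 L1 larvae (~2 worms/μL in M9) in liquid NGM with 2-fold concentrated E. coli HB101, compound at 1% DMSO, 6 days at 20 °C shaking 165 rpm. Well images scored as summed worm-associated pixels, normalized to DMSO controls; relative viability averaged over at least three biological replicates.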

L1 wild-type C. elegans [3] = test: microbe, parasite or virus in culture; conditions: Caenorhabditis elegans, read-out: C. elegans KCN Survival Assay LC50, estimated from fitted dose-response curves; mean of at least two biological replicates
[4] = KCN survival assay, hit = relative motility below 0.25
[5] = Dose 0.2 µM, mean of at least three biological replicates
[6] = HEK293 Cell Viability Assay LC50, HEK293 cells, estimated from fitted dose-response curves, mean of at least two biological replicates
[7] = read-out: C. elegans (ben-1) Development & Viability Assay LC50
[8] = read-out: C. elegans ben-1 log10 LC50 (converted)
[9] = hit = relative motility below 0.25 3 hours after removal of KCN

| SMILES | Screen "Hit" (L1 wild-type C. elegans [1]; [4]) | C. elegans KCN Survival (L1 wild-type C. elegans [1]; [5]) | C. elegans KCN Survival (L1 wild-type C. elegans [1]; Dose 0.39 µM) | C. elegans KCN Survival (L1 wild-type C. elegans [1]; Dose 1.56 µM) | C. elegans KCN Survival (L1 wild-type C. elegans [1]; Dose 3.13 µM) | C. elegans KCN Survival (L1 wild-type C. elegans [1]; Dose 6.25 µM) | C. elegans KCN Survival (L1 wild-type C. elegans [1]; Dose 12.5 µM) | C. elegans KCN Survival (L1 wild-type C. elegans [1]; Dose 25 µM) | C. elegans KCN Survival (L1 wild-type C. elegans [1]; Dose 50 µM) | C. elegans KCN Survival (L1 wild-type C. elegans [1]; Dose 100 µM) | viability at 2 days, 3.13 µM (in vitro; HEK293 viability, Dose 3.13 µM) [%] | viability at 2 days, 6.25 µM (in vitro; HEK293 viability) [%] | viability at 2 days, 12.5 µM (in vitro; HEK293 viability) [%] | viability at 2 days, 25 µM (in vitro; HEK293 viability) [%] | viability at 2 days, 50 µM (in vitro; HEK293 viability) [%] | viability at 2 days, 100 µM (in vitro; HEK293 viability) [%] | LC50 [2, 7] [µM] | viability at 15.6 µM [2] [%] | LC50 [2, 8] [µM] | LC50 (L1 wild-type C. elegans [3]) [µM] | further results |
| --- | --- | --- | --- | --- | --- | --- | --- | --- | --- | --- | --- | --- | --- | --- | --- | --- | --- | --- | --- | --- | --- |
| Cc1nc2ccccc2n1Cc1ccc(Cl)c(Cl)c1 [Compound 5655567] | Y (hits were identified as compounds that reduced relative motility below 0.25 (75% reduction)) | 0.934 | 0.972 | 0.973 | 0.953 | 0.756 | 0.219 | 0.111 | 0.120 | 0.176 | 100 | 100 | 100 | 88.9 | 72.1 | 15.5 | 85.3 | 100 | 85.3 | 8.26 | CC50 at 2 days (in vitro; [6]): 64.5 µM; viability at 1 µM [2]: 99.9%; viability at 2 µM [2]: 97.1%; viability at 3.9 µM [2]: 100%; viability at 31.3 µM [2]: 99.5%; viability at 62.5 µM [2]: 84.2%; viability at 125 µM [2]: 10.6%; viability at 250 µM [2]: 16.7% |
| Clc1ccc(Cn2cnc3ccccc32)cc1Cl [Compound 5571325] | Y (hits were identified as compounds that reduced relative motility below 0.25 (75% reduction)) | 1.000 | 0.996 | 1.008 | 0.957 | 0.819 | 0.586 | 0.133 | 0.122 | 0.206 | 73.5 | 52.9 | 49.8 | 60.7 | 57.7 | 16.3 | 69.5 | – | 69.5 | 13.1 | CC50 at 2 days (in vitro; HEK293 Cell Viability Assay LC50, HEK293 cells, estimated from fitted dose-response curves): 86.4 µM |
| Cc1ccccc1OCCCCn1cnc2ccccc21 [Compound 7732524] | Y (hits were identified as compounds that reduced relative motility below 0.25 (75% reduction)) | 1.002 | 0.963 | 0.887 | 0.828 | 0.509 | 0.007 | 0.000 | 0.000 | 0.000 | 100 | 100 | 100 | 93.2 | 48.1 | 13.7 | 58.5 | 100 | 58.5 | 6.37 | CC50 at 2 days (in vitro; [6]): 49.9 µM; viability at 31.3 µM [2]: 97%; viability at 62.5 µM [2]: 42.4%; viability at 125 µM [2]: 3.7%; viability at 250 µM [2]: 3.3%; viability at 500 µM [2]: 1.6%; viability at 1000 µM [2]: 1.3% |
| Nc1nc2ccccc2n1Cc1ccc(Br)cc1 [Compound 7313068] | Y (hits were identified as compounds that reduced relative motility below 0.25 (75% reduction)) | – | – | – | – | – | – | – | – | – | – | – | – | – | – | – | 63.1 | – | 63.1 | 14.9 | CC50 at 2 days (in vitro; [6]): 41.7 µM |
| Brc1ccccc1OCCCCn1cnc2ccccc21 [Compound 7924576] | Y (hits were identified as compounds that reduced relative motility below 0.25 (75% reduction)) | – | 0.969 | 0.940 | 0.862 | 0.585 | 0.135 | 0.138 | 0.159 | 0.208 | 96.3 | 98.1 | – | 82.8 | 40.2 | 6.9 | 58.6 | 87.8 | 58.6 | 6.73 | CC50 at 2 days (in vitro; [6]): 44.3 µM; viability at 1 µM [2]: 99.9%; viability at 2 µM [2]: 91.7%; viability at 3.9 µM [2]: 96.6%; viability at 31.3 µM [2]: 65.5%; viability at 62.5 µM [2]: 54%; viability at 125 µM [2]: 3.7%; viability at 250 µM [2]: 4.7%; viability at 500 µM [2]: 2.1%; viability at 1000 µM [2]: 0.7% |
| CC(C)Oc1cccc(OCCn2cnc3ccccc32)c1 [Compound 7926496] | – | 1.017 | 1.017 | 1.072 | 1.070 | 1.047 | 0.937 | 0.437 | 0.153 | 0.199 | – | 97.4 | 96.9 | 97.3 | 85.9 | 43.4 | 388 | 90.6 | 388 | 23 | Screen "Hit" (L1 wild-type C. elegans [1]; [9]): Y (hits were identified as compounds that reduced relative motility below 0.25 (75% reduction)); CC50 at 2 days (in vitro): 94.5 µM; viability (in vitro; HEK293 viability, Dose 3.13 µM): 91.5%; viability at 1 µM [2]: 86.1%; viability at 2 µM [2]: 87.5%; viability at 3.9 µM [2]: 87.4%; viability at 31.3 µM [2]: 95.8%; viability at 62.5 µM [2]: 91.5%; viability at 125 µM [2]: 81%; viability at 250 µM [2]: 86.3%; viability at 500 µM [2]: 13.9%; viability at 1000 µM [2]: 3.6% |
| Cc1cccc(OCCn2c(C)nc3ccccc32)c1 [Compound 6285199] | – | 1.002 | 1.011 | 0.994 | 1.093 | 0.980 | 0.810 | 0.165 | 0.143 | 0.167 | 100 | 100 | 100 | 100 | 98.3 | 46.5 | 205 | 95.5 | 205 | 14.7 | Screen "Hit" (L1 wild-type C. elegans [1]; [9]): Y (hits were identified as compounds that reduced relative motility below 0.25 (75% reduction)); CC50 at 2 days (in vitro): 97.7 µM; viability at 1 µM [2]: 99.9%; viability at 2 µM [2]: 91.6%; viability at 3.9 µM [2]: 97.6%; viability at 31.3 µM [2]: 93.8%; viability at 62.5 µM [2]: 97.6%; viability at 125 µM [2]: 100%; viability at 250 µM [2]: 64.8% |
